Reference: PubChem BioAssay AID1918930 (Molecular Pharmacology Branch, DTP, NCI, 2023)

Tested on: 233499-124-R-J3-PDC complex spheroid viability, % test/control
Experiment: Anticancer human tumor 233499-124-R-J3-PDC patient-derived colon adenocarcinoma cell line growth inhibition
Settings: for IC50: curve of first compound; for viability, T/C: stronger effect = lower value
How it was run: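 Drug combinations with the LSD1 inhibitor iadademstat tested on tumor cells co-cultured as spheroids with endothelial cells and mesenchymal stem cells. Concentrations descended in half-log increments from clinical Cmax or 10 microM.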

[1] = second compound 0.1 µM, first compound 0.00949 µM
[2] = second compound 0.1 µM, first compound 0.03 µM
[3] = second compound 0.1 µM, first compound 0.0949 µM
[4] = second compound 0.1 µM, first compound 0.3 µM
[5] = second compound 0.316 µM, first compound 0.00949 µM
[6] = second compound 0.316 µM, first compound 0.03 µM
[7] = second compound 0.316 µM, first compound 0.0949 µM
[8] = second compound 0.316 µM, first compound 0.3 µM
[9] = second compound 1 µM, first compound 0.00949 µM
[10] = second compound 1 µM, first compound 0.03 µM
[11] = second compound 1 µM, first compound 0.0949 µM
[12] = second compound 1 µM, first compound 0.3 µM
[13] = second compound 3.16 µM, first compound 0.00949 µM
[14] = second compound 3.16 µM, first compound 0.03 µM
[15] = second compound 3.16 µM, first compound 0.0949 µM
[16] = second compound 3.16 µM, first compound 0.3 µM
[17] = second compound 10 µM, first compound 0.00949 µM
[18] = second compound 10 µM, first compound 0.03 µM
[19] = second compound 10 µM, first compound 0.0949 µM
[20] = second compound 10 µM, first compound 0.3 µM
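Further: spheroids exposed to agents for one week before readout.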

CCN(c1cc(-c2ccc(CN3CCOCC3)cc2)cc(C(=O)NCc2c(C)cc(C)[nH]c2=O)c1C)C1CCOCC1 + NC1CC1c1ccc(-c2cccc(O)c2)cc1 showed an IC50 (second compound 0.1 µM) of over 3000 nM, an IC50 (second compound 0.316 µM) of over 3000 nM and an IC50 (second compound 1 µM) of 2500 nM. The IC50 (second compound 3.16 µM) was over 3000 nM, the IC50 (second compound 10 µM) was 1860 nM and the viability, T/C [1] was 97.3%. It also gave a viability, T/C [2] of 99.1%, a viability, T/C [3] of 111% and a viability, T/C [4] of 115%. It also gave a viability, T/C (second compound 0.1 µM, first compound 0.949 µM) of 98.4%, a viability, T/C (second compound 0.1 µM, first compound 3 µM) of 51.8% and a viability, T/C [5] of 117%. For the same molecule, the viability, T/C [6] was 124%, the viability, T/C [7] was 112% and the viability, T/C [8] was 129%. It also gave a viability, T/C (second compound 0.316 µM, first compound 0.949 µM) of 98.5%, a viability, T/C (second compound 0.316 µM, first compound 3 µM) of 50.8% and a viability, T/C [9] of 97%. The viability, T/C [10] was 99.7%, the viability, T/C [11] was 93.7% and the viability, T/C [12] was 107%. For the same molecule, the viability, T/C (second compound 1 µM, first compound 0.949 µM) was 85%, the viability, T/C (second compound 1 µM, first compound 3 µM) was 43.4% and the viability, T/C [13] was 99%. It also gave a viability, T/C [14] of 105%, a viability, T/C [15] of 90.5% and a viability, T/C [16] of 80.7%. The viability, T/C (second compound 3.16 µM, first compound 0.949 µM) was 77.2%, the viability, T/C (second compound 3.16 µM, first compound 3 µM) was 53.9% and the viability, T/C [17] was 79.3%. It also gave a viability, T/C [18] of 88.6%, a viability, T/C [19] of 84.7% and a viability, T/C [20] of 93.2%. It also gave a viability, T/C (second compound 10 µM, first compound 0.949 µM) of 65.8% and a viability, T/C (second compound 10 µM, first compound 3 µM) of 38.8%.
Molecule Nc1ncn(C2CC(O)C(CO)S2)c(=O)n1 (stereo not given) + NC1CC1c1ccc(-c2cccc(O)c2)cc1 has an IC50 (second compound 0.1 µM) of 100 nM, an IC50 (second compound 0.316 µM) of 102 nM and an IC50 (second compound 1 µM) of 124 nM. For the same molecule, the IC50 (second compound 3.16 µM) was 128 nM, the IC50 (second compound 10 µM) was 81.5 nM and the viability, T/C (second compound 0.1 µM, first compound 0.000949 µM) was 95.5%. For the same molecule, the viability, T/C (second compound 0.1 µM, first compound 0.003 µM) was 94.1%, the viability, T/C [1] was 117% and the viability, T/C [2] was 101%. The viability, T/C [3] was 51.2%, the viability, T/C [4] was 25.6% and the viability, T/C (second compound 0.316 µM, first compound 0.000949 µM) was 108%. For the same molecule, the viability, T/C (second compound 0.316 µM, first compound 0.003 µM) was 96.7%, the viability, T/C [5] was 114% and the viability, T/C [6] was 114%. The viability, T/C [7] was 51.2%, the viability, T/C [8] was 31.5% and the viability, T/C (second compound 1 µM, first compound 0.000949 µM) was 85.7%. The viability, T/C (second compound 1 µM, first compound 0.003 µM) was 96.4%, the viability, T/C [9] was 103% and the viability, T/C [10] was 87%. It also gave a viability, T/C [11] of 57.2%, a viability, T/C [12] of 26.7% and a viability, T/C (second compound 3.16 µM, first compound 0.000949 µM) of 81%. It also gave a viability, T/C (second compound 3.16 µM, first compound 0.003 µM) of 86.9%, a viability, T/C [13] of 85.8% and a viability, T/C [14] of 89.1%. It also gave a viability, T/C [15] of 58.4%, a viability, T/C [16] of 26% and a viability, T/C (second compound 10 µM, first compound 0.000949 µM) of 80.2%. For the same molecule, the viability, T/C (second compound 10 µM, first compound 0.003 µM) was 83.4%, the viability, T/C [17] was 81.5% and the viability, T/C [18] was 83.8%. The viability, T/C [19] was 45% and the viability, T/C [20] was 34.7%.
O=C(C=Cn1cnc(-c2cc(C(F)(F)F)cc(C(F)(F)F)c2)n1)NNc1cnccn1 + NC1CC1c1ccc(-c2cccc(O)c2)cc1 showed an IC50 (second compound 0.1 µM) of 821 nM, an IC50 (second compound 0.316 µM) of 669 nM and an IC50 (second compound 1 µM) of 805 nM. It also gave an IC50 (second compound 3.16 µM) of 920 nM, an IC50 (second compound 10 µM) of 557 nM and a viability, T/C (second compound 0.1 µM, first compound 0.00316 µM) of 102%. It also gave a viability, T/C (second compound 0.1 µM, first compound 0.01 µM) of 83.9%, a viability, T/C (second compound 0.1 µM, first compound 0.0316 µM) of 95.7% and a viability, T/C (second compound 0.1 µM, first compound 0.1 µM) of 101%. For the same molecule, the viability, T/C (second compound 0.1 µM, first compound 0.316 µM) was 77.6%, the viability, T/C (second compound 0.1 µM, first compound 1 µM) was 44.3% and the viability, T/C (second compound 0.316 µM, first compound 0.00316 µM) was 91.8%. It also gave a viability, T/C (second compound 0.316 µM, first compound 0.01 µM) of 104%, a viability, T/C (second compound 0.316 µM, first compound 0.0316 µM) of 97.2% and a viability, T/C (second compound 0.316 µM, first compound 0.1 µM) of 81.2%. It also gave a viability, T/C (second compound 0.316 µM, first compound 0.316 µM) of 73.5%, a viability, T/C (second compound 0.316 µM, first compound 1 µM) of 38.2% and a viability, T/C (second compound 1 µM, first compound 0.00316 µM) of 67.3%. For the same molecule, the viability, T/C (second compound 1 µM, first compound 0.01 µM) was 78.9%, the viability, T/C (second compound 1 µM, first compound 0.0316 µM) was 90.9% and the viability, T/C (second compound 1 µM, first compound 0.1 µM) was 101%. For the same molecule, the viability, T/C (second compound 1 µM, first compound 0.316 µM) was 67.3%, the viability, T/C (second compound 1 µM, first compound 1 µM) was 46% and the viability, T/C (second compound 3.16 µM, first compound 0.00316 µM) was 84.1%. For the same molecule, the viability, T/C (second compound 3.16 µM, first compound 0.01 µM) was 102%, the viability, T/C (second compound 3.16 µM, first compound 0.0316 µM) was 83.5% and the viability, T/C (second compound 3.16 µM, first compound 0.1 µM) was 94.3%. The viability, T/C (second compound 3.16 µM, first compound 0.316 µM) was 72.5%, the viability, T/C (second compound 3.16 µM, first compound 1 µM) was 48.2% and the viability, T/C (second compound 10 µM, first compound 0.00316 µM) was 73.5%. For the same molecule, the viability, T/C (second compound 10 µM, first compound 0.01 µM) was 83.1%, the viability, T/C (second compound 10 µM, first compound 0.0316 µM) was 78.2% and the viability, T/C (second compound 10 µM, first compound 0.1 µM) was 81.9%. It also gave a viability, T/C (second compound 10 µM, first compound 0.316 µM) of 61.7% and a viability, T/C (second compound 10 µM, first compound 1 µM) of 38%.
